Laboratory results reported in patent US20260345640A1 (priority 2025, published 2026).
Converted amounts (≈) assume the structure as drawn. Counter-ions that a name gives are not always drawn. Like-named read-outs stand apart in the source and are kept apart here.

Experiments:
[1] = tested on: E. coli DH5αZ1 expressing Tet50; assay: Minimum inhibitory concentration, Tet50-expressing strain; type: cell-based; details: 20 h; for MIC: Escherichia coli; for MIC, Tet50, +TC: presence of 8 μg/mL TC, 37 °C
Description: (§1) The panels were stored at −80 °C before use. Single colonies of E. coli DH5αZ1 containing TetX7, Tet50, or empty vector in pZE24 expression system were grown in MH-II broth with KAN50 and growth for overnight at 37 °C. On the day of the experiment, MIC panels were thawed at room temperature. […] The panels were incubated at 37 °C for 20 h, then scored by visual inspection. […] Each test was performed in triplicate, with no-antibiotic and no-cell control wells.
(§2) Minimum inhibitory concentrations (MICs) were determined using the broth microdilution method according to CLSI guidelines. Visual inspection of bacterial growth and measurement of the OD600 were used to determine the lowest concentration at which bacterial growth was inhibited.

[2] = tested on: E. coli DH5αZ1 expressing TetX7; assay: Minimum inhibitory concentration, TetX7-expressing strain; type: cell-based; details: Escherichia coli, 20 h
Description: as §1, §2

[3] = biological target: T1, Tet50 (Unknown prokaryotic organism, UniProt A0A059WYP6); assay: In vitro inhibition of TC oxidation by Tet50 (A400), variable preincubation, dark or blue light; type: biochemical; details: role: inhibitor, 100 μM TC, 500 μM NADPH
T1 construct: made in house; host or cells: E. coli BL21-Star (DE3)
T1 sequence (A0A059WYP6 whole entry): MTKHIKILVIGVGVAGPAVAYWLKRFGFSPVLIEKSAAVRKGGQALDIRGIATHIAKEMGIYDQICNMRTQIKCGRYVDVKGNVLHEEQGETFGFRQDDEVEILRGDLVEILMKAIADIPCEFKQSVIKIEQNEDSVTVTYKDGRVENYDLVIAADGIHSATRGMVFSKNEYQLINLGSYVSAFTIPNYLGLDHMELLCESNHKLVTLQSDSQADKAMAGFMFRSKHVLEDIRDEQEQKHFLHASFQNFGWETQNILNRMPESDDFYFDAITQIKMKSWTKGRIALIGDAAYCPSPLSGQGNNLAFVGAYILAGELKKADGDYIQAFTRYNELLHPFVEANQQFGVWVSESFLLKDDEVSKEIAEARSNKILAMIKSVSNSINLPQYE
Description: PHBH activity was determined similarly using para-hydroxybenzoic acids as substrate and monitoring for NADPH consumption via A340. […] Reaction samples were prepared in a Costar 96-well flat bottom clear, polystyrene plate and incubated under dark or a 700 lm blue LED bulb held at a distance of 20 cm for various durations. Incubation times were 0, 30, 60, 120, and 240 min under dark or 0, 1, 2, 4, and 8 min under blue light. […] Initial enzyme velocities were determined by linear regression over the linear range of the reaction (typically between 0 and 1 min). […] The velocities were plotted against the logarithm of inhibitor concentration, and apparent IC50 plots were analyzed using GraphPad prism 10 software. […] All apparent IC50 values were plotted against the duration of incubation time and fitted to an exponential decay function. All data points were shown as means and error bars represented standard deviation at least two independent experiments.
TetX7 and TetX6 as model Type 1 enzymes and Tet50 as a model Type 2 enzyme were used.
A hallmark of covalent enzyme inhibition was time dependence given that longer exposure of the enzyme to the inhibitor allowed for more inactivating turnovers. […] The apparent IC50 values were determined for each preincubation time point by monitoring the TDase velocity at A400 under various inhibitor concentrations. The apparent IC50 values were plotted against the preincubation times to determine if the TDase inhibition was time-dependent (FIG. 6).

[4] = dark, 30 min preincubation of inhibitor with enzyme prior to initiating assay, read-out: Apparent IC50 values, Tet50
[5] = read-out: Apparent IC50 value over 7 min blue light, blue light, 7 min

SMILES	MIC ([1]; read-out: MIC, Tet50, −TC) [µg/mL]	MIC, Tet50, +TC [1] [µg/mL]	IC50 [3, 4] [µM]	IC50 [3, 5] [µM]	also measured
Cc1c2c(c(O)c3c(O)c(CNC4(C)CC4)ccc13)C(=O)C1(O)C(=O)C(C(N)=O)=C(O)C(N(C)C)C1C2 [Compound 103, (4S,4aS,12aS)-4-(Dimethylamino)-3,10,11,12a-tetrahy-droxy-6-methyl-9-(((1-methylcyclopropyl)amino)methyl)-1,12-dioxo-1,4,4a,5,12,12a-hexahydrotetracene-2-carboxamide Hydrochloride]	64	16	–	–	MIC ([2]; read-out: MIC, TetX7, −TC): 64 µg/mL
C#CCNCc1ccc2c(C)c3c(c(O)c2c1O)C(=O)[C@]1(O)C(=O)C(C(N)=O)=C(O)[C@@H](N(C)C)[C@@H]1C3.Cl [Compound 104, (4S,4aS,12aS)-4-(Dimethylamino)-3,10,11,12a-tetrahydroxy-6-methyl-1,12-dioxo-9-((prop-2-yn-1-ylamino)-methyl)-1,4,4a,5,12,12a-hexahydrotetracene-2-carboxamide Hydrochloride]	–	8	600 ± 40	–	–
C#CCN(C)Cc1ccc2c(C)c3c(c(O)c2c1O)C(=O)[C@]1(O)C(=O)C(C(N)=O)=C(O)[C@@H](N(C)C)[C@@H]1C3 [Compound 105]	32 (≈ 63 µM)	16	470 ± 60	107 ± 6	–
Cc1c2c(c(O)c3c(O)cccc13)C(=O)[C@]1(O)C(=O)C(C(N)=O)=C(O)[C@@H](N(C)C)[C@@H]1C2 [Compound 106, Anhydrotetracycline, reference compound]	–	–	–	70 ± 10	IC50 ([3]; blue light, start of course, read-out: Apparent IC50 value at start of blue light course): 500 ± 60 µM; IC50 ([3]; dark, 240 min preincubation, read-out: Apparent IC50 value over 240 min preincubation): 340 ± 40 µM
CN(C)[C@@H]1C(O)=C(C(N)=O)C(=O)[C@@]2(O)C(O)=C3C(=O)c4c(O)cccc4[C@@](C)(O)[C@H]3C[C@@H]12 [TC, tetracycline, reference compound]	–	–	–	–	MIC ([1]; read-out: MIC of TC against Tet50::pZE24): 16 µg/mL; MIC ([2]; read-out: MIC of TC against TetX7::pZE24): 16 µg/mL
